How the values were obtained:
[1] = target: T1, 5-hydroxytryptamine receptor 1A (Homo sapiens, UniProt P08908); test: Displacement of [35S]GTP-gamma-S from human recombinant 5HT1A receptor; type: functional
T1 sequence (P08908 whole entry): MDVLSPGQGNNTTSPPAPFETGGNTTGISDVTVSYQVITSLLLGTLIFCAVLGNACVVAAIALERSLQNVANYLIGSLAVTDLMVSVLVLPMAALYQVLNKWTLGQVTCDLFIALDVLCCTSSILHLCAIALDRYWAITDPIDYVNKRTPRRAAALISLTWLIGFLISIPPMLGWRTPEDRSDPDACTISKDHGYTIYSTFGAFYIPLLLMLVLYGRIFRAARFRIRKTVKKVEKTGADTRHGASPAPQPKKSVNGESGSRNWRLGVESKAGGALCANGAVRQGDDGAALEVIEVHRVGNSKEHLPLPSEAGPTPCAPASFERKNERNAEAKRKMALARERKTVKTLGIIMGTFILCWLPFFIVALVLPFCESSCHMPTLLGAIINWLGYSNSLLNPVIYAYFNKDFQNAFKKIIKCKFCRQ

[2] = target: T2, 5-hydroxytryptamine receptor 1B (Homo sapiens, UniProt P28222); test: Inhibitory activity against human recombinant 5HT1B receptor co-expressed with G-protein chimera Gqo5 in HEK293 cells by FLIPR; type: functional, cell-based
T2 sequence (P28222 whole entry): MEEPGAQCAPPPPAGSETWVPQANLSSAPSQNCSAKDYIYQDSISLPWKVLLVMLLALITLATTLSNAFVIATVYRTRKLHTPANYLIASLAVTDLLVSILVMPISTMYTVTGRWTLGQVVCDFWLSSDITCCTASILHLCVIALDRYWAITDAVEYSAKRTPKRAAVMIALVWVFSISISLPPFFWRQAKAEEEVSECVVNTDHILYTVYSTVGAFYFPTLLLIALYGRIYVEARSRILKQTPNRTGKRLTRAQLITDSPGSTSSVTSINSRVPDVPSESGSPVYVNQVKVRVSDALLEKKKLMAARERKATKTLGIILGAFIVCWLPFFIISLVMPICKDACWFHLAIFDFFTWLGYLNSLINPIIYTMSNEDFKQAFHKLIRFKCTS

[3] = target: T3, Adrenergic receptor alpha-1 (Homo sapiens, UniProt P35348+P25100+P35368); test: Inhibitory activity against Adrenergic alpha-1 receptor; type: protein assay
T3 sequence (P35348 whole entry): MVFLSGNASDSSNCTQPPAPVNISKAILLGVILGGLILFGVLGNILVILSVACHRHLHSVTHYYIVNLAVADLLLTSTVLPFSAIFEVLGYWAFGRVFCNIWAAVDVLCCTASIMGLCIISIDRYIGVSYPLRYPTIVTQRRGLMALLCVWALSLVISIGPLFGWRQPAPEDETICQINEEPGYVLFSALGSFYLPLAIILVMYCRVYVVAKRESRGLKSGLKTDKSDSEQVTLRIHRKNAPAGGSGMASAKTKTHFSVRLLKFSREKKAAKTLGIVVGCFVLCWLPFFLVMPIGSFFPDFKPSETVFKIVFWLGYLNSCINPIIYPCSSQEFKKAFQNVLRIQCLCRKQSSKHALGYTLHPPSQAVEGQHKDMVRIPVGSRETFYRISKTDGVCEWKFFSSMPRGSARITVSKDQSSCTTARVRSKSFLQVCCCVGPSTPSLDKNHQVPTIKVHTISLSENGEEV
T3 sequence (P25100 whole entry): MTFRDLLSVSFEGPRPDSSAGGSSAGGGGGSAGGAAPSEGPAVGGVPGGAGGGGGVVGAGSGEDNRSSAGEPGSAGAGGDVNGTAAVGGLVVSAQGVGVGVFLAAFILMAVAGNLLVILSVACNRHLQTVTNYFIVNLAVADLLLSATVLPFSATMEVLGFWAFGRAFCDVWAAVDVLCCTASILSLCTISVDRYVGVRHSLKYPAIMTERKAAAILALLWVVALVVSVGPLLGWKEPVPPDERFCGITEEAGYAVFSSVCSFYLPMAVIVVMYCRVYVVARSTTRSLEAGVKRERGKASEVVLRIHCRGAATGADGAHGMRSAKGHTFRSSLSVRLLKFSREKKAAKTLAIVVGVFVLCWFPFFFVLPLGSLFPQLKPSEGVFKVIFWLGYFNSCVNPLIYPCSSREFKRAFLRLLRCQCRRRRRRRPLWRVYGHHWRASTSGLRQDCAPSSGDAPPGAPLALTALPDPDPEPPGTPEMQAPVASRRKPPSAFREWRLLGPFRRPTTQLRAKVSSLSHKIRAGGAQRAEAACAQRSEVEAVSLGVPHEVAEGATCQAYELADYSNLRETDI
T3 sequence (P35368 whole entry): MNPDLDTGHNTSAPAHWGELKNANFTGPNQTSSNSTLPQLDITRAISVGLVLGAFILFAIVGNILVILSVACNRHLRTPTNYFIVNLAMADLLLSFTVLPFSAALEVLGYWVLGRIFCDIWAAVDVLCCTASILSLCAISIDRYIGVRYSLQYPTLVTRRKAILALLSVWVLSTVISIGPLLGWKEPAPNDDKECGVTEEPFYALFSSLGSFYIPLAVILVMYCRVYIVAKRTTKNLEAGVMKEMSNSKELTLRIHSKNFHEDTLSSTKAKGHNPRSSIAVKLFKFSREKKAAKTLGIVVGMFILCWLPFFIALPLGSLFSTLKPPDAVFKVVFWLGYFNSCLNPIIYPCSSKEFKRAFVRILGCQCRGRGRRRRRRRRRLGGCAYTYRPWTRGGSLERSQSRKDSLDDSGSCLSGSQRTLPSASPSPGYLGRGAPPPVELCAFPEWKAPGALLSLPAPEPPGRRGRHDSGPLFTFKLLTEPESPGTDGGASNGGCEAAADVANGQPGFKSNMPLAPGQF

[4] = target: T2, 5-hydroxytryptamine receptor 1B; test: Intrinsic activity for 5HT1B receptor in FLIPR assay; type: functional
[5] = target: T4, 5-hydroxytryptamine receptor 1A (Homo sapiens) (UniProt P08908); test: Intrinsic activity for 5HT1A receptor in [35S]GTP-gamma-S assay; type: functional
T4 sequence (whole entry): T1 sequence (P08908 whole entry)

[6] = target: T4, 5-hydroxytryptamine receptor 1A (Homo sapiens); test: Functional activity in [35S]GTP-gamma-S assay for 5HT1A receptor
[7] = target: T2, 5-hydroxytryptamine receptor 1B; test: Functional activity in FLIPR assay for 5HT1B receptor

Compound	Ki [1]	Ki [2]	Ki [3]	Emax [4]	Emax [5]	Activity ([6]; filed as antagonist)	Activity ([7]; filed as agonist)	Activity ([6]; filed as partial agonist)	Activity ([7]; filed as partial agonist)	Activity ([7]; filed as antagonist)	Activity ([6]; filed as agonist)
CN1CCc2c(sc3ncn(CCN4CCN(c5ncnc6ccccc56)CC4)c(=O)c23)C1	93.4 nM	320 nM	6780 nM	> 80%	< 10%	Antagonist	Agonist				
COc1ccc(-c2ccccc2)cc1N1CCN(CCn2cnc3sc4c(c3c2=O)CCN(C)C4)CC1	429 nM	116 nM	0.1 nM								
COc1cc(Cl)ccc1N1CCN(CCn2cnc3sc4c(c3c2=O)CCN(C)C4)CC1	18.8 nM	3.3 nM	0.5 nM	< 20%	10%			Partial agonist		Antagonist	
CN1CCc2c(sc3ncn(CCN4CCN(c5ccccc5OCc5ccccc5)CC4)c(=O)c23)C1	1.9 nM	1.2 nM	4 nM	20%	10%			Partial agonist	Partial agonist		
COc1ccc(C)cc1N1CCN(CCn2cnc3sc4c(c3c2=O)CCN(C)C4)CC1	5.6 nM	11.9 nM	12.1 nM	< 20%	10%			Partial agonist		Antagonist	
CN1CCc2c(sc3ncn(CCN4CCN(c5ccccc5-c5ccccc5)CC4)c(=O)c23)C1	4.1 nM	1.1 nM	1.1 nM	< 20%	10%			Partial agonist		Antagonist	
COc1c(Cl)cccc1N1CCN(CCn2cnc3sc4c(c3c2=O)CCN(C)C4)CC1	2.5 nM	0.5 nM	7 nM	20%	10%			Partial agonist	Partial agonist		
COc1ccc(C(F)(F)F)cc1N1CCN(CCn2cnc3sc4c(c3c2=O)CCN(C)C4)CC1	104 nM	42.3 nM	18 nM								
COc1c(Cl)cc(Cl)cc1N1CCN(CCn2cnc3sc4c(c3c2=O)CCN(C)C4)CC1	25.8 nM	3.8 nM	14.8 nM	20%	> 70%				Partial agonist		Agonist
COc1ccc(Cl)cc1N1CCN(CCn2cnc3sc4c(c3c2=O)CCN(C)C4)CC1	3 nM	70.3 nM	0.1 nM	< 20%	< 10%	Antagonist				Antagonist	
CN1CCc2c(sc3ncn(CCN4CCN(c5ccccc5C#N)CC4)c(=O)c23)C1	2.5 nM	1.4 nM	1.8 nM	> 80%	10%		Agonist	Partial agonist			
CN1CCc2c(sc3ncn(CCN4CCN(c5cccc6ncccc56)CC4)c(=O)c23)C1	1.5 nM	1.7 nM	26.7 nM	20%	< 10%	Antagonist			Partial agonist		
CN1CCc2c(sc3ncn(CCN4CCN(c5ccccc5Oc5ccccc5)CC4)c(=O)c23)C1	0.9 nM	1.1 nM	0.5 nM	20%	10%			Partial agonist	Partial agonist		
COc1ccc(OC)c(N2CCN(CCn3cnc4sc5c(c4c3=O)CCN(C)C5)CC2)c1	24.2 nM	50.2 nM	8.4 nM	< 20%	< 10%	Antagonist				Antagonist	
Cc1ccccc1N1CCN(CCn2cnc3sc4c(c3c2=O)CCN(C)C4)CC1	2.9 nM	3.5 nM	1.7 nM	20%	< 10%	Antagonist			Partial agonist		
CN1CCc2c(sc3ncn(CCN4CCN(c5ccccc5Cl)CC4)c(=O)c23)C1	2.8 nM	1.7 nM	1 nM	20%	10%			Partial agonist	Partial agonist		
CN1CCc2c(sc3ncn(CCN4CCN(c5ccc6ccccc6n5)CC4)c(=O)c23)C1	9.1 nM	36.6 nM	121.1 nM	20%	10%			Partial agonist	Partial agonist		

Continued by falling Ki [1], values first:

Ki [1]	Ki [2]	Ki [3]	Emax [4]	Emax [5]	Activity ([6]; filed as antagonist)	Activity ([7]; filed as agonist)	Activity ([6]; filed as partial agonist)	Activity ([7]; filed as partial agonist)	Activity ([7]; filed as antagonist)	Activity ([6]; filed as agonist)	Compound
0.9 nM	0.9 nM	129.1 nM	20%	10%			Partial agonist	Partial agonist			CN1CCc2c(sc3ncn(CCN4CCN(c5cccc6cnccc56)CC4)c(=O)c23)C1
0.7 nM	2.5 nM	0.1 nM	< 20%	10%			Partial agonist		Antagonist		CC(C)Oc1ccccc1N1CCN(CCn2cnc3sc4c(c3c2=O)CCN(C)C4)CC1
0.7 nM	0.5 nM	41.1 nM	20%	10%			Partial agonist	Partial agonist			CN1CCc2c(sc3ncn(CCN4CCN(c5nccc6ccccc56)CC4)c(=O)c23)C1
0.7 nM	0.5 nM	13.2 nM	20%	10%			Partial agonist	Partial agonist			CN1CCc2c(sc3ncn(CCN4CCN(c5cccc6ccccc56)CC4)c(=O)c23)C1
0.7 nM	1.4 nM	0.4 nM	20%	< 10%	Antagonist			Partial agonist			COc1ccccc1N1CCN(CCn2cnc3sc4c(c3c2=O)CCN(C)C4)CC1
0.6 nM	0.5 nM	0.2 nM	< 20%	10%			Partial agonist		Antagonist		CN1CCc2c(sc3ncn(CCN4CCN(c5cccc6c5OCC6)CC4)c(=O)c23)C1
0.4 nM	0.4 nM	0.5 nM	< 20%	10%			Partial agonist		Antagonist		CN1CCc2c(sc3ncn(CCN4CCN(c5cccc6ccsc56)CC4)c(=O)c23)C1
0.2 nM	0.3 nM	1.2 nM	20%	10%			Partial agonist	Partial agonist			CN1CCc2c(sc3ncn(CCN4CCN(c5cccc6cccnc56)CC4)c(=O)c23)C1

From ChEMBL document CHEMBL1141234, “Synthesis and SAR of highly potent dual 5-HT1A and 5-HT1B antagonists as potential antidepressant drugs” (Bioorg Med Chem Lett, 2005)
